Where a SMILES comes first, the peptide text is derived from it. Bridges are numbered along the chain shown (N, C = ends).
Assays:
Assay in all cases: BROMOscan competition binding assay (BromoMAX, Eurofins DiscoverX)
ATAD2B = molecular target: T1, ATAD2B (Homo sapiens, UniProt Q9ULI0); details: for Percent Control ATAD2B: compound concentration 1000 nM, lower percentage control = stronger affinity
T1 construct: purchased Eurofins DiscoverX (BROMOscan, BromoMAX)
T1 sequence (Q9ULI0 1-1458): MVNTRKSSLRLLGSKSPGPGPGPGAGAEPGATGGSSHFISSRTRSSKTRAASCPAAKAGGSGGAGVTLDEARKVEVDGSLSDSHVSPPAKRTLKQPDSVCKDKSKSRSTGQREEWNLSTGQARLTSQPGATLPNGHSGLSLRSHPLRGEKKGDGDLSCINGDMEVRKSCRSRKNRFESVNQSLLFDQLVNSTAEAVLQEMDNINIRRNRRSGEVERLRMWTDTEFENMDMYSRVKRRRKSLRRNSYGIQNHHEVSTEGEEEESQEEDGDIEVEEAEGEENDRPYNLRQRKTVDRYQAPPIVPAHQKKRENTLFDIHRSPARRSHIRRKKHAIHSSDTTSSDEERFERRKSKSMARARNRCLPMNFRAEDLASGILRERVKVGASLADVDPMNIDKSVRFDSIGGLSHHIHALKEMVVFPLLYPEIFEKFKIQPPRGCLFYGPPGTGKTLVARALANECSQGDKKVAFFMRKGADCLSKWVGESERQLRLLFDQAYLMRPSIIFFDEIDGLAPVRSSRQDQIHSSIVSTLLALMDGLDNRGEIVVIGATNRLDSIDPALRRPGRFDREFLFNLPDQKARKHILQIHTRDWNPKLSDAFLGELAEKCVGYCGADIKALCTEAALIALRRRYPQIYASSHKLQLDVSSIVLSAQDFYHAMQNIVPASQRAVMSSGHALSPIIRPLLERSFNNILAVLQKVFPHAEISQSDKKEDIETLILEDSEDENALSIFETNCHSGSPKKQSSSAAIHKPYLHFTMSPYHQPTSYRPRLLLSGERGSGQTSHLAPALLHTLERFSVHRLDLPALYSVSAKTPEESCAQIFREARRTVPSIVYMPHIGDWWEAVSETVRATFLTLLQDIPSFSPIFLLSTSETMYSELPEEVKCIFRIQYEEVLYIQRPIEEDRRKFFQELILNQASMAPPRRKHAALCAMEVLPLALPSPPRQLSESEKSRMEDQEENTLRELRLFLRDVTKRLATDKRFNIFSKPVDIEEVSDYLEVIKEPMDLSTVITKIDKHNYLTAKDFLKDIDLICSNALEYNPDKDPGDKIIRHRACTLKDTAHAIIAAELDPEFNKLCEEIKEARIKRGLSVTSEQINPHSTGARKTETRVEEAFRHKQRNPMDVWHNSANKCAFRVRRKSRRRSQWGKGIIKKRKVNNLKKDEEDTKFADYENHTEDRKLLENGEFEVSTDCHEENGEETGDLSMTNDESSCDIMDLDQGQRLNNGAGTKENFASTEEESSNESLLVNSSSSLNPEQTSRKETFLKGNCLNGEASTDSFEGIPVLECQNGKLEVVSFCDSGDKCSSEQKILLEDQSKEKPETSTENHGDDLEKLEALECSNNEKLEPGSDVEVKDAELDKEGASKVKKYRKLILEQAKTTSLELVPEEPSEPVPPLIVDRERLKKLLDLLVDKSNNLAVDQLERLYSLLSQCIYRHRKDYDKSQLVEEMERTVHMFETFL

CREBBP = molecular target: T2, CREBBP (Homo sapiens, UniProt Q92793); details: for Percent Control CREBBP: compound concentration 1000 nM, lower percentage control = stronger affinity
T2 construct: purchased Eurofins DiscoverX (BROMOscan, BromoMAX)

PBRM1(5) = molecular target: T3, PBRM1(5) (Homo sapiens, UniProt Q86U86); details: for Percent Control PBRM1(5): compound concentration 1000 nM, lower percentage control = stronger affinity
T3 construct: PBRM1(5); purchased Eurofins DiscoverX (BROMOscan, BromoMAX)

TRIM33(PHD,Bromo.) = tested on: TRIM33(PHD,Bromo.); set-up: species or system human; details: compound concentration 1000 nM; lower percentage control = stronger affinity
BRPF3 = molecular target: T4, BRPF3 (Homo sapiens, UniProt Q9ULD4); details: for Percent Control BRPF3: compound concentration 1000 nM, lower percentage control = stronger affinity
T4 construct: purchased Eurofins DiscoverX (BROMOscan, BromoMAX)
T4 sequence (Q9ULD4 1-1205): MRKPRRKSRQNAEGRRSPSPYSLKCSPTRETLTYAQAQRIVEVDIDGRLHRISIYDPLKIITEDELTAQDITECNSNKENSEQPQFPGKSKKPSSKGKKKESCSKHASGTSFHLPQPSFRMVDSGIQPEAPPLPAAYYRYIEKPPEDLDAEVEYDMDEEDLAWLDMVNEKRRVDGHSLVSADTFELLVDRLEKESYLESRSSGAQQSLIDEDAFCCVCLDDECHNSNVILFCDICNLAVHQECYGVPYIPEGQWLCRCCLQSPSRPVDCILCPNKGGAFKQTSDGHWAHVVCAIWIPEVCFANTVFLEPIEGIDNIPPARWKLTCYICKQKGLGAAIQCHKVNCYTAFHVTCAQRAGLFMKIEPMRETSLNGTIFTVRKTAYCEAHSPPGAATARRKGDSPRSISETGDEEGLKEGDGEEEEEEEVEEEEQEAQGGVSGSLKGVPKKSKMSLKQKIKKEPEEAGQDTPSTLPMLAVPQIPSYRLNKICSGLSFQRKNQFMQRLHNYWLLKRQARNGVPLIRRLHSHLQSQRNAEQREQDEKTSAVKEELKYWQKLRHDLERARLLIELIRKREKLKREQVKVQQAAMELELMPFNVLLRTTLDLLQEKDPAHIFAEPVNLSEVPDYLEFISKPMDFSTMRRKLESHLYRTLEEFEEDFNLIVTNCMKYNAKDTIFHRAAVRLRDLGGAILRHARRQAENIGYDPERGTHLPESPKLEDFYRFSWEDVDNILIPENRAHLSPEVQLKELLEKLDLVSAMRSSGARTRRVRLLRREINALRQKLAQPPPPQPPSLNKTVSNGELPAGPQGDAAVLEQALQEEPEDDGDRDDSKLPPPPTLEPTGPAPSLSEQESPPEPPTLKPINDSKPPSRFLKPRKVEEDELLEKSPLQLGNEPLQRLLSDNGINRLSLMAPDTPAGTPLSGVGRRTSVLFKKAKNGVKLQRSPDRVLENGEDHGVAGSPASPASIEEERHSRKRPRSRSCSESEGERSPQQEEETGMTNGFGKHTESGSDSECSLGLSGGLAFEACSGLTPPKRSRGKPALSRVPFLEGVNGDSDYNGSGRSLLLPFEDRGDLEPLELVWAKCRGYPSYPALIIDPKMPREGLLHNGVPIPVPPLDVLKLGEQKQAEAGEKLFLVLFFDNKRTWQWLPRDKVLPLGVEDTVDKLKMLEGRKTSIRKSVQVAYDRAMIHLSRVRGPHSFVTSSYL

WDR9(2) = molecular target: T5, WDR9(2) (Homo sapiens, UniProt Q9NSI6); details: for Percent Control WDR9(2): compound concentration 1000 nM, lower percentage control = stronger affinity
T5 construct: WDR9(2); purchased Eurofins DiscoverX (BROMOscan, BromoMAX)
T5 sequence (Q9NSI6 1307-1433 limits assumed): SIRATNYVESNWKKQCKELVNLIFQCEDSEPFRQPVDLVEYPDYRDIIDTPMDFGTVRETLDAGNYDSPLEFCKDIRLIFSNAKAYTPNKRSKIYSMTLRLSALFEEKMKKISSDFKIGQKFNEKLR

T2 sequence (Q92793 whole entry): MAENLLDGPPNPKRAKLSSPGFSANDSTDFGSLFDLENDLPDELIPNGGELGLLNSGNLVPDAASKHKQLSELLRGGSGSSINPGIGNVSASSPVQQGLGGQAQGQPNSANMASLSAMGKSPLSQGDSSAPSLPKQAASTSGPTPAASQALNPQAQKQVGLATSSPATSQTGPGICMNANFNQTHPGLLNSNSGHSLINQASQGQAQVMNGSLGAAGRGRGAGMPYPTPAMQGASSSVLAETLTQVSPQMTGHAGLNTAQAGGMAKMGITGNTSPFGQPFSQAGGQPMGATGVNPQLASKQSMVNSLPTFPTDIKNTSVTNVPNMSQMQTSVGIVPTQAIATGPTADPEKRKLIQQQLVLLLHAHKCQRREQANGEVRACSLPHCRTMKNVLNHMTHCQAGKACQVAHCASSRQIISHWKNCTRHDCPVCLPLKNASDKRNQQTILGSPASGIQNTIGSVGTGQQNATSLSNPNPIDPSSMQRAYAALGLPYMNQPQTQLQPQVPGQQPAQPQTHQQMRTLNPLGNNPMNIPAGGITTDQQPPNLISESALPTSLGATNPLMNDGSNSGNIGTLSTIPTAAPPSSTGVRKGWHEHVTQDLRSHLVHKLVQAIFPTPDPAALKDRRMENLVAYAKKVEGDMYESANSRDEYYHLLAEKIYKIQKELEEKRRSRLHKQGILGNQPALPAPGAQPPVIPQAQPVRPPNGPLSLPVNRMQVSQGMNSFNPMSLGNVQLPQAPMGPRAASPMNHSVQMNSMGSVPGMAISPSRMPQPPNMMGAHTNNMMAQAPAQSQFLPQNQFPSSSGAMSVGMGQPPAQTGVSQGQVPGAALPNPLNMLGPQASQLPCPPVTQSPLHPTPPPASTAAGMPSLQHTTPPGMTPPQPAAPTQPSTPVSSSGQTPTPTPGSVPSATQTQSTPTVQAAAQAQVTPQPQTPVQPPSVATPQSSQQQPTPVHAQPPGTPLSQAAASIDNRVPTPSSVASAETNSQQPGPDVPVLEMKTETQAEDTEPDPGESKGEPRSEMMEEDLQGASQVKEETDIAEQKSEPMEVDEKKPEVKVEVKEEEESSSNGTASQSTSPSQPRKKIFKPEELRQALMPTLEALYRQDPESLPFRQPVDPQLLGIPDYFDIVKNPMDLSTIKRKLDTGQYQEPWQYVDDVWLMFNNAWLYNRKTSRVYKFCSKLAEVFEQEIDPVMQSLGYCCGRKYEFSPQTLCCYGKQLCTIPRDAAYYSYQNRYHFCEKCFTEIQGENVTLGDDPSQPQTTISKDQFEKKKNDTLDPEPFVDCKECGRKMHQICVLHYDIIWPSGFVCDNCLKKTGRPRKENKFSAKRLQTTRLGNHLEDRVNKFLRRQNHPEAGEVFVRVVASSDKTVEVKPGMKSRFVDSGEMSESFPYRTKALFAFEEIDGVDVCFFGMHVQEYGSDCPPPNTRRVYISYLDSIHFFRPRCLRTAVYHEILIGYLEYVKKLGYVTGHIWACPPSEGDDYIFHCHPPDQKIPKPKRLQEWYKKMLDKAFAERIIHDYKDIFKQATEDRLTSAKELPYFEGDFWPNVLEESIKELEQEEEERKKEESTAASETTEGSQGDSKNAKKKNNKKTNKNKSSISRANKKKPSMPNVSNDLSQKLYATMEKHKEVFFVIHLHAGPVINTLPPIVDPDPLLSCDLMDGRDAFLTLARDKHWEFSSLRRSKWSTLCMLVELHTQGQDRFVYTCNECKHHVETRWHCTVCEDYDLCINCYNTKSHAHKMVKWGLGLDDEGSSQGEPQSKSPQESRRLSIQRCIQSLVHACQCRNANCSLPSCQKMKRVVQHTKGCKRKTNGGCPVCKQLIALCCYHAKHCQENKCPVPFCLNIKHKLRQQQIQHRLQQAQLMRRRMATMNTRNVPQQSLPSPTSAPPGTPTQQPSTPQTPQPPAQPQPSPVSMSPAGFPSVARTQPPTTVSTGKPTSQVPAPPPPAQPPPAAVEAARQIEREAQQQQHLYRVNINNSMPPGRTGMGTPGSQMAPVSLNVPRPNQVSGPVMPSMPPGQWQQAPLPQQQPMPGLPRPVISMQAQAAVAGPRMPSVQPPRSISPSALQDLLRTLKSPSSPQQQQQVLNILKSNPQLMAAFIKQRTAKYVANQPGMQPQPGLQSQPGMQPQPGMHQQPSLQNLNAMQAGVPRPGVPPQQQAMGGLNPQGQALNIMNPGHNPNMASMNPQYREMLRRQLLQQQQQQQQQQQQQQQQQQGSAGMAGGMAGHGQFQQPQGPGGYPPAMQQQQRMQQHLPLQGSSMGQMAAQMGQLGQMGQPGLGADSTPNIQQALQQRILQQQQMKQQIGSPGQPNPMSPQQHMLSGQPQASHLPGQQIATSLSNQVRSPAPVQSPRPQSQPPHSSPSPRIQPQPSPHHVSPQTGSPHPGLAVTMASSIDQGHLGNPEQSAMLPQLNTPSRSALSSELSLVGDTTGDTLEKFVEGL
T3 sequence (Q86U86 645-766 limits assumed): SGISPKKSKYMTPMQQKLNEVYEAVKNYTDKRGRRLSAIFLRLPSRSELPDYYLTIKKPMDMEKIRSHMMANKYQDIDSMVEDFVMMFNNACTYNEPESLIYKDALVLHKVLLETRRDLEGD

Row | SMILES | Percent Control ATAD2B (ATAD2B) | Percent Control CREBBP (CREBBP) | Percent Control PBRM1(5) (PBRM1(5)) | Percent Control TRIM33(PHD,Bromo.) (TRIM33(PHD,Bromo.)) | Percent Control BRPF3 (BRPF3) | Percent Control WDR9(2) (WDR9(2)) | percent of control binding at 1 µM (ATAD2B) | remaining binding at 1 µM (CREBBP; read-out: Percent Control CREBBP) | remaining binding at 1 µM (PBRM1(5); read-out: Percent Control PBRM1(5)) | remaining binding at 1 µM (BRPF3; read-out: Percent Control BRPF3) | percent of control binding at 1 µM (WDR9(2))
1 | CC[C@H](C)[C@@H]1NC(=O)[C@H]([C@@H](C)O)NC(=O)[C@H](CCCCN)NC(=O)[C@H](Cc2c[nH]c3ccccc23)NC(=O)CSC[C@@H](C(N)=O)NC(=O)[C@H](CCC(N)=O)NC(=O)[C@H](CCCCNC(C)=O)NC(=O)[C@H]([C@@H](C)O)NC(=O)[C@H](CCCNC(=N)N)NC(=O)[C@H](Cc2c[nH]c3ccccc23)NC(=O)[C@H]([C@@H](C)O)NC(=O)[C@H](CCCCNC(C)=O)NC(=O)CNC(=O)[C@H](CCCCNC(C)=O)NC1=O [3.1B] ({CH2CO}-WKTIK(Ac)GK(Ac)TWRTK(Ac)QC-NH2; thioether N-14) | 100% | 100% | 100% | 100% | 100% | 96% |  |  |  |  | 
2 | CC[C@H](C)[C@@H]1NC(=O)[C@H](Cc2c[nH]c3ccccc23)NC(=O)[C@H](Cc2c[nH]c3ccccc23)NC(=O)CSC[C@@H](C(N)=O)NC(=O)CNC(=O)[C@H](CCCCNC(C)=O)NC(=O)[C@H](CCCCN)NC(=O)[C@H](C(C)C)NC(=O)[C@H](CCCCNC(C)=O)NC(=O)[C@@H]2CCCN2C(=O)[C@H]([C@@H](C)CC)NC1=O [3.1C] ({CH2CO}-WWIIPK(Ac)VKK(Ac)GC-NH2; thioether N-11) | 100% | 100% | 89% | 100% | 95% | 87% |  |  |  |  | 
3 | CC[C@H](C)[C@H](NC(=O)[C@H](CCCNC(=N)N)NC(=O)[C@H](CCCCNC(C)=O)NC(=O)[C@H](CCCNC(=N)N)NC(=O)[C@H](CC(C)C)NC(=O)[C@@H]1CSCC(=O)N[C@@H](Cc2c[nH]c3ccccc23)C(=O)N[C@@H](CCCCNC(C)=O)C(=O)NCC(=O)N[C@@H](Cc2ccc(O)cc2)C(=O)N[C@@H](CC(C)C)C(=O)N1)C(=O)N[C@@H](CCC(N)=O)C(=O)N[C@@H](CCCNC(=N)N)C(=O)N[C@H](C(=O)N[C@@H](Cc1ccc(O)cc1)C(=O)N[C@@H](CC(N)=O)C(N)=O)[C@@H](C)O [4.2C] ({CH2CO}-WK(Ac)GYLCLRK(Ac)RIQRTYN-NH2; thioether N-6) |  |  |  | 100% |  |  | 100% | 100% | 90% | 92% | 85%

— paper PMC7604503, “Cyclic peptides can engage a single binding pocket through highly divergent modes” (Proceedings of the National Academy of Sciences of the …, 2020)
